Data on one compound can be found in patent US20200289473A1, “METHODS OF TREATING NEURODEGENERATION” (The J David Gladstone Institutes a testamentary trust …, priority 2017, published 2020).

Data set [1] relates to fibrin-induced microglia activation. Nature of the data set: fibrin-induced microglia activation assay. It is filed as cell-based. The note with it: dose-dependent, fibrin stimulus, read-out: IC50, inhibition of fibrin-induced microglia activation. An excerpt:
(§1) To identify inhibitors of microglia activation, an assay as described in U.S. Ser. No. 15/109,163, was used to screen a library of 1907 clinical drugs and bioactive compounds. The criteria for hits were ≥50% inhibition of activation and ≤3% cell death to exclude toxic compounds. This represents a three standard deviation difference from the mean value of negative control activated cells. 128 compounds were selected from the screen that satisfied these criteria for dose response curves. Acivicin, a γ-glutamyl transpeptidase inhibitor, was identified among the compounds and was selected for additional characterization as it was an unexpected target for microglial activation and had not been previously linked with neurological diseases.
(§2) Throughout assay development, we consistently observed multiple-fold proliferation (increase in cell count) of microglia upon activation. Proliferation of fibrin-activated microglia cells was inhibited by treatment with acivicin. […] We also examined the effect of acivicin on microglia activation by other immunostimulatory agents.

The test system of data set [2] is LPS-induced microglia activation. Briefly: LPS-induced microglia activation assay. It is filed as cell-based. The note with it: LPS stimulus; comparable to fibrin (FIG. 4).
Text: as §1, §2

The subject of the next data set is microglia. Nature of the data set: cell toxicity in the microglia activation assay. It is filed as cell-based. The note with it: up to highest assay concentration of 20 μM.
Text: as §1, §2

The test system of data set [3] is fibrin-activated microglia cells. Nature of the data set: proliferation of fibrin-activated microglia cells. It is filed as cell-based. The note with it: increase in cell count upon activation; dose-dependent (FIG. 3).
Text: as §2

The next data set relates to MOG35-55 induced EAE. Nature of the data set: chronic EAE model (MOG35-55), prophylactic treatment, clinical score. The class given is in vivo. The note with it: MOG35-55 mice; daily i.p. starting 0 day after immunization; vs saline. The source says: (§3) To further study the ability of acivicin to inhibit microglial activation, acivicin was next studies for its ability to suppress disease progression and ameliorate the disease symptoms in the EAE animal models of multiple sclerosis. Two models of EAE were used: (1) mice immunized with MOG35-55 to induce chronic disease and (2) mice immunized with PLP139-151 to induce relapsing-remitting EAE.
First, to examine the ability of acivicin to prevent disease symptoms and/or progression to multiple sclerosis in a chronic EAE model, acivicin or saline were administered prophylactically to mice immunized with MOG35-55 to induce chronic disease. The mice were immunized with MOG35-55 to induce chronic disease. Acivicin or saline was administered daily by intraperitoneal (i.p.) injection, starting 0 day after immunization (n=15 saline, n=14 acivicin).

Another data set deals with PLP139-151 induced EAE. Briefly: relapsing-remitting EAE model (PLP139-151), therapeutic treatment, clinical score. The class given is in vivo. The note with it: PLP139-151 mice; daily i.p. starting at peak EAE; vs saline.
Text: as §3
Next, to assess the ability to therapeutic efficacy of acivicin to treat disease symptoms and/or progression in relapsing-remitting (PLP139-151) EAE model, mice were administered either acivicin or saline injections daily by intraperitoneal (i.p.) injection starting at the peak EAE phase of the EAE PLP139-151. (n=6 saline, and n=7 acivicin). Acivicin decreased the clinical severity of EAE during remission phases (FIG. 7).

Data set [4] deals with Cx3cr1+ microglia and Ccr2+ monocytes. Nature of the data set: microglial accumulation and monocyte infiltration in Ccr2RFP/+Cx3cr1GFP/+ mice with MOG35-55 EAE. The note with it: prophylactic injection. It is filed as in vivo. An excerpt:
CNS-resident innate immune cell microglia and CNS-infiltrating inflammatory monocytes are essential for the inflammatory progression of EAE. Yamasaki, R. et al. J Exp Med 211, 1533-1549 (2014); Ajami, B. et al, Nature neuroscience 14, 1142-1149 (2011). To determine whether blocking the γ-glutamyl transpeptidase activity with acivicin inhibits microglial activation and infiltration of monocytes/macrophages in vivo in the EAE models, Ccr2^RFP/+Cx3cr1^GFP/+ mice in which resident microglia are GFP-positive and inflammatory monocytes are RFP-positive were used. Ryu, J. K. et al. Nat Commun 6, 8164 (2015). EAE was induced with MOG35-55, and mice were prophylactically injected with acivicin.

For data set [5], the system named is myelin damage and neuronal injury in EAE. Briefly: MBP and SMI-32 immunohistochemistry in EAE. It is filed as in vivo. The note with it: after EAE induction; vs saline-treated mice. The source says: To investigate whether acivicin can protect from myelin damage and neurodegeneration in EAE, MBP and SMI-32 immunohistochemistry was used to assess myelin damage and neuronal injury.

Data set [6] relates to pro-inflammatory gene expression. Briefly: real-time PCR of pro-inflammatory genes in spinal cords at the peak of EAE. The class given is in vivo, mice. The note with it: spinal cord, peak of MOG35-55 EAE; vs saline. The method, then:
To gain insight into the anti-inflammatory mechanism by which acivicin regulates the progression of inflammation after EAE, real-time PCR analysis was used. Real-time PCR analysis of expression of pro-inflammatory genes in the spinal cords of MOG35-55 treated mice was performed at the peak of EAE in the saline-treated and acivicin-treated mice (n=7 saline and n=7 acivicin).

Entries after “also recorded” stand apart in the source; their conditions may differ.

`N[C@H](C(=O)O)[C@@H]1CC(Cl)=NO1` [acivicin]: the IC50 (as a rule, the concentration that inhibits the measured activity by half) in data set [1] was 2000 nM. Also, the “inhibition of microglia activation by LPS (potency)” value in [2] is given as “comparable low μM potency”. Moreover, the “toxic cell death / cell toxicity” value with microglia is given as “no apparent cell toxicity; also recorded: not evident”. In data set [3], the “proliferation of fibrin-activated microglia cells” value was “inhibited”. Besides, in the data set on MOG35-55 induced EAE, the “acute phase of EAE (clinical score)” value is listed as “completely inhibited”. Moreover, the “clinical severity of EAE during remission phases” value in the data set on PLP139-151 induced EAE was “decreased”. Moreover, in [4], the “accumulation of Cx3cr1+ microglia (% area GFP in spinal cord)” value is reported as “significantly decreased” and the “infiltration of Ccr2+ monocytes (% area RFP)” value is given as “significantly decreased”. In addition, in data set [5], the “axonal injury (SMI-32 immunohistochemistry)” value is listed as “dramatic reduction” and the “myelin damage (MBP immunohistochemistry)” value was “dramatic reduction”. In addition, in data set [6], the “EAE-induced transcription of Ccl5” value was “inhibits”, the “EAE-induced transcription of Cxcl10” value is given as “inhibits”, the “EAE-induced transcription of IL-1b” value was “inhibits” and the “EAE-induced transcription of IL-12p40” value is “inhibits”. Besides, in data set [6], the “EAE-induced transcription of iNOS” value is recorded as “inhibits”.
